Results on six molecules are retold here after patent publication US20240209028A1, “CNP COMPOUNDS” (priority 2022, published 2024).

Starred links: 1 amine or outer side, 2 acyl side, 3 side chain; linkers in the order of their positions; H or OH if unused. Positions of bridges follow the written chain, without caps; N, C: chain ends. Residues, ends and D or L forms follow the SMILES beside them. *: point of attachment. C18 diacid = O=C(O)CCCCCCCCCCCCCCCCC(=O)*; γGlu = O=C(O)[C@H](CCC(=O)[*:2])N[*:1]; AEEA = NCCOCCOCC(=O)O

The target of the assay is T1, human natriuretic peptide receptor 2 (hNPR2) (Homo sapiens, UniProt P20594).
T1 construct: expressed in transfected cells; host or cells: HEK293 (ATCC CRL-1573), clone 35, co-transfected with pGloSensor-42F
T1 sequence (P20594 23-1047): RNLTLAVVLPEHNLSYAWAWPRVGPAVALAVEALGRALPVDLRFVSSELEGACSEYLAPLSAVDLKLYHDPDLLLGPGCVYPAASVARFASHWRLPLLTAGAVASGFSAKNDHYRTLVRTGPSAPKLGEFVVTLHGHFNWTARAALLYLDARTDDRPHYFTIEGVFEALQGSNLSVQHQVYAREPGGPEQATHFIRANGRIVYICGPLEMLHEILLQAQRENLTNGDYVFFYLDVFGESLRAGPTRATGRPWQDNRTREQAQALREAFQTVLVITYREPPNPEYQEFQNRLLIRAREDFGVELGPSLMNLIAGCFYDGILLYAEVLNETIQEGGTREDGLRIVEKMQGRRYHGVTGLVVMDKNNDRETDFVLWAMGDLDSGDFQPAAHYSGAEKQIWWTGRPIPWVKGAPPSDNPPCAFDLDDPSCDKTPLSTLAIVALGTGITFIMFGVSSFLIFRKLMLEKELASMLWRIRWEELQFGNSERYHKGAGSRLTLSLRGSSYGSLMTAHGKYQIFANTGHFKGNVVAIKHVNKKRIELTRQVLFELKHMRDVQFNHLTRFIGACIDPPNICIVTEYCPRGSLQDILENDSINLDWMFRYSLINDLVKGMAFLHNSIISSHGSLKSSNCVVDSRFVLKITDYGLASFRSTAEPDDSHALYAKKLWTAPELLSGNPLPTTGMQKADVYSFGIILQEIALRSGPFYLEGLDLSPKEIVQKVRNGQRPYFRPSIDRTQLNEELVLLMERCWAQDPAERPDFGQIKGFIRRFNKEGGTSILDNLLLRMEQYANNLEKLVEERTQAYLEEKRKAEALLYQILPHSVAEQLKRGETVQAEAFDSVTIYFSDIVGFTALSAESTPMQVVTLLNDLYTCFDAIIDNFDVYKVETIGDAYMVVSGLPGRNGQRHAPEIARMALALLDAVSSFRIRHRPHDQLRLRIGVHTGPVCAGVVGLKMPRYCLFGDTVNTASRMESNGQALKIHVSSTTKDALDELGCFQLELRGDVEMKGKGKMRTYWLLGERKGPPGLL
The experiment in a line: In vitro hNPR2 activity assay (cGMP GloSensor reporter, HEK293). It counts as cell-based. To be noted: potency relative to CNP22 (0065). The method in brief: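 Potency is the EC50 from a four-parameter logistic fit, also expressed relative to the in-plate CNP22 control (×100), with at least two replicates. Compounds (ten concentrations, […], HSA-free diluent with 1% OVA, 0.01% Tween20) were incubated 30 min at 37 °C on HEK293 cells co-expressing hNPR2 and a GloSensor cGMP luciferase. Luminescence detected with Bright-Glo.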
With `CC[C@H](C)[C@@H]1NC(=O)[C@H](CCCNC(=N)N)NC(=O)[C@H](CC(=O)O)NC(=O)[C@H](CC(C)C)NC(=O)[C@@H]2CCCN2C(=O)[C@H](CC(C)C)NC(=O)CNC(=O)[C@H](Cc2ccccc2)NC(=O)[C@@H](NC(=O)CNC(=O)[C@H](CCC(N)=O)NC(=O)[C@H](CO)NC(=O)[C@H](CC(C)C)NC(=O)CNC(=O)[C@H](CCCCN)NC(=O)[C@H](CCCCN)NC(=O)[C@H](CCC(N)=O)NC(=O)[C@H](C)NC(=O)CNC(=O)[C@H](CCCCN)NC(=O)[C@H](Cc2ccc(O)cc2)NC(=O)[C@H](CCCCN)NC(=O)[C@H](CCCNC(=N)N)NC(=O)[C@H](C)NC(=O)COCCOCCNC(=O)COCCOCCNC(=O)COCCOCCNC(=O)CC[C@H](NC(=O)CC[C@H](NC(=O)CC[C@H](NC(=O)CC[C@H](NC(=O)CC[C@H](NC(=O)CCCCCCCCCCCCCCCCC(=O)O)C(=O)O)C(=O)O)C(=O)O)C(=O)O)C(=O)O)CSSC[C@@H](C(=O)O)NC(=O)CNC(=O)[C@H](CC(C)C)NC(=O)CNC(=O)[C@H](CO)NC(=O)[C@H](CC(C)C)NC(=O)[C@H](CO)NC(=O)CNC1=O` [compound 1452] ({C18 diacid-γGlu-γGlu-γGlu-γGlu-γGlu-AEEA-AEEA-AEEA}-ARKYKGAQKKGLSQGCFGLPLDRIGSLSGLGC-OH; disulfide 16-32), the “hNPR2 0% HSA. [EC50% rel CNP]” value is given as 57.6%.
On to `CC[C@H](C)[C@@H]1NC(=O)[C@H](CCCNC(=N)N)NC(=O)[C@H](CC(=O)O)NC(=O)[C@H](CC(C)C)NC(=O)[C@@H]2CCCN2C(=O)[C@H](CC(C)C)NC(=O)CNC(=O)[C@H](Cc2ccccc2)NC(=O)[C@@H](NC(=O)CNC(=O)[C@H](CCC(N)=O)NC(=O)[C@H](CO)NC(=O)[C@H](CC(C)C)NC(=O)CNC(=O)[C@H](CCCCN)NC(=O)[C@H](CCCCN)NC(=O)[C@H](CCC(N)=O)NC(=O)[C@H](C)NC(=O)CNC(=O)[C@H](CCCCN)NC(=O)[C@H](Cc2ccc(O)cc2)NC(=O)[C@H](CCCCN)NC(=O)[C@H](CCCNC(=N)N)NC(=O)[C@H](C)NC(=O)COCCOCCNC(=O)COCCOCCNC(=O)COCCOCCNC(=O)COCCOCCNC(=O)CC[C@H](NC(=O)CC[C@H](NC(=O)CC[C@H](NC(=O)CC[C@H](NC(=O)CCCCCCCCCCCCCCCCC(=O)O)C(=O)O)C(=O)O)C(=O)O)C(=O)O)CSSC[C@@H](C(=O)O)NC(=O)CNC(=O)[C@H](CC(C)C)NC(=O)CNC(=O)[C@H](CO)NC(=O)[C@H](CC(C)C)NC(=O)[C@H](CO)NC(=O)CNC1=O` [compound 1454] ({C18 diacid-γGlu-γGlu-γGlu-γGlu-AEEA-AEEA-AEEA-AEEA}-ARKYKGAQKKGLSQGCFGLPLDRIGSLSGLGC-OH; disulfide 16-32; C-terminus assumed), for which the “hNPR2 0% HSA. [EC50% rel CNP]” value is listed as 63.6%.
The same measure for `CC[C@H](C)[C@@H]1NC(=O)[C@H](CCCNC(=N)N)NC(=O)[C@H](CC(=O)O)NC(=O)[C@H](CC(C)C)NC(=O)[C@@H]2CCCN2C(=O)[C@H](CC(C)C)NC(=O)CNC(=O)[C@H](Cc2ccccc2)NC(=O)[C@@H](NC(=O)CNC(=O)[C@H](CCC(N)=O)NC(=O)[C@H](CO)NC(=O)[C@H](CC(C)C)NC(=O)CNC(=O)[C@H](CCCCN)NC(=O)[C@H](CCCCN)NC(=O)[C@H](CCC(N)=O)NC(=O)[C@H](C)NC(=O)CNC(=O)[C@H](CCCCN)NC(=O)[C@H](Cc2ccc(O)cc2)NC(=O)[C@H](CCCCN)NC(=O)[C@H](CCCNC(=N)N)NC(=O)[C@H](C)NC(=O)COCCOCCNC(=O)COCCOCCNC(=O)COCCOCCNC(=O)CC[C@H](NC(=O)CC[C@H](NC(=O)CC[C@H](NC(=O)CC[C@H](NC(=O)CCCCCCCCCCCCCCCCC(=O)O)C(=O)O)C(=O)O)C(=O)O)C(=O)O)CSSC[C@@H](C(=O)O)NC(=O)CNC(=O)[C@H](CC(C)C)NC(=O)CNC(=O)[C@H](CO)NC(=O)[C@H](CC(C)C)NC(=O)[C@H](CO)NC(=O)CNC1=O` [compound 1455] ({C18 diacid-γGlu-γGlu-γGlu-γGlu-AEEA-AEEA-AEEA}-ARKYKGAQKKGLSQGCFGLPLDRIGSLSGLGC-OH; disulfide 16-32): 43.4%; for `CC[C@H](C)[C@@H]1NC(=O)[C@H](CCCNC(=N)N)NC(=O)[C@H](CC(=O)O)NC(=O)[C@H](CC(C)C)NC(=O)[C@@H]2CCCN2C(=O)[C@H](CC(C)C)NC(=O)CNC(=O)[C@H](Cc2ccccc2)NC(=O)[C@@H](NC(=O)CNC(=O)[C@H](CCC(N)=O)NC(=O)[C@H](CO)NC(=O)[C@H](CC(C)C)NC(=O)CNC(=O)[C@H](CCCCN)NC(=O)[C@H](CCCCN)NC(=O)[C@H](CCC(N)=O)NC(=O)[C@H](C)NC(=O)CNC(=O)[C@H](CCCCN)NC(=O)[C@H](Cc2ccc(O)cc2)NC(=O)[C@H](CCCCN)NC(=O)[C@H](CCCNC(=N)N)NC(=O)[C@H](C)NC(=O)COCCOCCNC(=O)COCCOCCNC(=O)CC[C@H](NC(=O)CC[C@H](NC(=O)CC[C@H](NC(=O)CC[C@H](NC(=O)CCCCCCCCCCCCCCCCC(=O)O)C(=O)O)C(=O)O)C(=O)O)C(=O)O)CSSC[C@@H](C(=O)O)NC(=O)CNC(=O)[C@H](CC(C)C)NC(=O)CNC(=O)[C@H](CO)NC(=O)[C@H](CC(C)C)NC(=O)[C@H](CO)NC(=O)CNC1=O` [compound 1456] ({C18 diacid-γGlu-γGlu-γGlu-γGlu-AEEA-AEEA}-ARKYKGAQKKGLSQGCFGLPLDRIGSLSGLGC-OH; disulfide 16-32): 50.4%.
`CC[C@H](C)[C@@H]1NC(=O)[C@H](CCCNC(=N)N)NC(=O)[C@H](CC(=O)O)NC(=O)[C@H](CC(C)C)NC(=O)[C@@H]2CCCN2C(=O)[C@H](CC(C)C)NC(=O)CNC(=O)[C@H](Cc2ccccc2)NC(=O)[C@@H](NC(=O)CNC(=O)[C@H](CCC(N)=O)NC(=O)[C@H](CO)NC(=O)[C@H](CO)NC(=O)CNC(=O)[C@H](CCCCN)NC(=O)[C@H](CCCCN)NC(=O)[C@H](CCC(N)=O)NC(=O)[C@H](C)NC(=O)CNC(=O)[C@@H]2CCCN2C(=O)[C@H](C)NC(=O)[C@H](CCC(N)=O)NC(=O)CNC(=O)[C@@H]2CCCN2C(=O)[C@H](C)NC(=O)[C@H](CCC(N)=O)NC(=O)CNC(=O)COCCOCCNC(=O)COCCOCCNC(=O)CC[C@H](NC(=O)CCCCCCCCCCCCCCCCC(=O)O)C(=O)O)CSSC[C@@H](C(=O)O)NC(=O)CNC(=O)[C@H](CC(C)C)NC(=O)CNC(=O)[C@H](CO)NC(=O)[C@H](CC(C)C)NC(=O)[C@H](CO)NC(=O)CNC1=O` [compound 1458] ({C18 diacid-γGlu-AEEA-AEEA}-GQAPGQAPGAQKKGSSQGCFGLPLDRIGSLSGLGC-OH; disulfide 19-35): the “hNPR2 0% HSA. [EC50% rel CNP]” value amounted to 93.6%.
On to `CC[C@H](C)[C@@H]1NC(=O)[C@H](CCCNC(=N)N)NC(=O)[C@H](CC(=O)O)NC(=O)[C@H](CC(C)C)NC(=O)[C@@H]2CCCN2C(=O)[C@H](CC(C)C)NC(=O)CNC(=O)[C@H](Cc2ccccc2)NC(=O)[C@@H](NC(=O)CNC(=O)[C@H](CCC(N)=O)NC(=O)[C@H](CO)NC(=O)[C@H](CO)NC(=O)CNC(=O)[C@H](CCCCN)NC(=O)[C@H](CCCCN)NC(=O)[C@H](CCC(N)=O)NC(=O)[C@H](C)NC(=O)CNC(=O)[C@H](CCCCN)NC(=O)[C@H](Cc2ccc(O)cc2)NC(=O)[C@H](CCCCN)NC(=O)[C@H](CCCNC(=N)N)NC(=O)[C@H](C)NC(=O)[C@@H]2CCCN2C(=O)[C@H](C)NC(=O)[C@H](CCC(N)=O)NC(=O)CNC(=O)COCCOCCNC(=O)COCCOCCNC(=O)CC[C@H](NC(=O)CC[C@H](NC(=O)CC[C@H](NC(=O)CC[C@H](NC(=O)CCCCCCCCCCCCCCCCC(=O)O)C(=O)O)C(=O)O)C(=O)O)C(=O)O)CSSC[C@@H](C(=O)O)NC(=O)CNC(=O)[C@H](CC(C)C)NC(=O)CNC(=O)[C@H](CO)NC(=O)[C@H](CC(C)C)NC(=O)[C@H](CO)NC(=O)CNC1=O` [compound 1459] ({C18 diacid-γGlu-γGlu-γGlu-γGlu-AEEA-AEEA}-GQAPARKYKGAQKKGSSQGCFGLPLDRIGSLSGLGC-OH; disulfide 20-36), for which the “hNPR2 0% HSA. [EC50% rel CNP]” value is on record as 76.1%.
